Results on 28 molecules are retold here after patent US20070249670A1, “Glycogen Phosphorylase Inhibitor Compounds and Pharmaceutical Compositions Thereof” (SMITHKLINE BEECHAM CORPORATION, priority 2004, published 2007).

The target in this assay is T1, human liver glycogen phosphorylase a (HLGPa) (Homo sapiens, UniProt P06737).
T1 construct: creating a full-length cDNA fused at the 5′ end to codons for methionine-glycine-alanine-histidine; 6xHis tag (leader Met-Gly-Ala-His6-Gly-Gly) (N); made in house; host or cells: E. coli (bacterial expression plasmid pTXK1007LTev)
T1 sequence (P06737 2-847 limits assumed): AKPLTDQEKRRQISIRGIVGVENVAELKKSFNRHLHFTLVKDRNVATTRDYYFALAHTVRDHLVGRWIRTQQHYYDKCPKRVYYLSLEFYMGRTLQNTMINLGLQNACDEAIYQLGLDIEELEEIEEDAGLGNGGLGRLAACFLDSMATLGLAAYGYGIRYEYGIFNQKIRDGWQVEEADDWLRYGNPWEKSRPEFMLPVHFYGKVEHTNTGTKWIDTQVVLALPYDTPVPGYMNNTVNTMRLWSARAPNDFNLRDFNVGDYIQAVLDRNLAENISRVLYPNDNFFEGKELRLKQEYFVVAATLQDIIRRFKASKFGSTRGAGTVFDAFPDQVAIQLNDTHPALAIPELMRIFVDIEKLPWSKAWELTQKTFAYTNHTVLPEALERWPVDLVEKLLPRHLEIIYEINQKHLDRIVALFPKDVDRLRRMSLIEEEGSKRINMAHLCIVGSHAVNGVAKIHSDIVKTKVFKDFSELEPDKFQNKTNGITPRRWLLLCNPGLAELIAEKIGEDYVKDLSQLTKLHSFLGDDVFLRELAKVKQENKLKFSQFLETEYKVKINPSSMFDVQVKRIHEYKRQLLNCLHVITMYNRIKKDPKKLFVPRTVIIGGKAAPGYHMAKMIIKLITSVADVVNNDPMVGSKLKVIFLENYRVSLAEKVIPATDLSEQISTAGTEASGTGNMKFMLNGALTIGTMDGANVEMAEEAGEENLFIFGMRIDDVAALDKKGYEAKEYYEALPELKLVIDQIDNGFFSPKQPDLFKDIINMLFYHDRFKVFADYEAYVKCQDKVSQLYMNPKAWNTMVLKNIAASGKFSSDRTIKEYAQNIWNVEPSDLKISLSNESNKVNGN
Description: Human liver glycogen phosphorylase a enzymatic activity assay (coupled, fluorescent resorufin readout, with and without 10 mM glucose). In kind it is biochemical.

Setting [1] is: human liver glycogen phosphorylase a enzymatic activity assay.
Setting [2] is: human liver glycogen phosphorylase a, table does not say whether with or without 10 mM glucose.

For the molecule `O=C(Cc1c(Cl)ccc(Cl)c1Cl)Nc1cc2ccccc2cc1C(=O)N[C@H](C(=O)O)C1CCCCC1` [Example 459, (2S)-cyclohexyl{[(3-{[(2,3,6-trichlorophenyl)acetyl]amino}-2-naphthalenyl)carbonyl]amino}ethanoic acid], under setting [1], the 50% inhibitory concentration (IC50) was 180 nM.
The molecule `Cc1ccccc1NC(=O)Nc1cc2ccccc2cc1C(=O)NCC(=O)O` [Example 10, N-[3-({[(2-methylphenyl)amino]carbonyl}amino)-2-naphthoyl]glycine] gave an IC50 under setting [1] of 6500 nM.
Still for that read-out and setting: next, `Cc1ccc(C(=O)N[C@H](C(=O)O)C2CCCCC2)c(NC(=O)Nc2c(C)cccc2C)c1` [Example 176, (2S)-cyclohexyl({[2-({[(2,6-dimethylphenyl)amino]carbonyl}amino)-4-methylphenyl]carbonyl}amino)ethanoic acid]: 750 nM; `COc1cc(NC(=O)Nc2c(C)cc(C)cc2C)c(C(=O)NC(C(=O)O)c2ccccc2)cc1OC` (stereo not shown) [Example 106, [(2-{[(mesitylamino)carbonyl]amino}-4,5-dimethoxybenzoyl)amino](phenyl)acetic acid]: 4230 nM.
As for `COc1ccc(-c2ccc(C(=O)N[C@H](C(=O)O)C3CCCCC3)c(NC(=O)Nc3c(C)cccc3C)c2)cc1` [Example 191, (2S)-Cyclohexyl({[3-({[(2,6-dimethylphenyl)amino]carbonyl}amino)-4′-(methyloxy)-4-biphenylyl]carbonyl}amino)ethanoic acid], under setting [1], the IC50 is 32 nM.
Still for that read-out and setting: the result for `COc1cc(NC(=O)Nc2c(C)cccc2Cl)c(C(=O)N[C@@H](Cc2ccccc2)C(=O)O)cc1OC` [Example 73, N-[2-({[(2-chloro-6-methylphenyl)amino]carbonyl}amino)-4,5-dimethoxybenzoyl]-L-phenylalanine] reads 11600 nM; that for `COc1ccc(-c2nc(C(=O)N[C@H](C(=O)O)C3CCCCC3)c(NC(=O)Nc3c(Cl)cccc3Cl)s2)cc1` [Example 487, (2S)-Cyclohexyl[({5-({[(2,6-dichlorophenyl)amino]carbonyl}amino)-2-[4-(methyloxy)phenyl]-1,3-thiazol-4-yl}carbonyl)amino]ethanoic acid], 740 nM.
`Cc1cc(C)c(NC(=O)Nc2cc(-c3ccc(CN4CCCC4)cc3)ccc2C(=O)N[C@H](C(=O)O)C2CCCCC2)c(C)c1` [Example 216, (2S)-Cyclohexyl({[4′-(1-pyrrolidinylmethyl)-3-({[(2,4,6-trimethylphenyl)amino]carbonyl}amino)-4-biphenylyl]carbonyl}amino)ethanoic acid]: under setting [2], half-maximal inhibition (IC50) was put at 6 nM.
With `Cc1cc(C)c(NC(=O)Nc2sc(-c3ccc(OC(F)(F)F)cc3)cc2C(=O)N[C@H](C(=O)O)C2CCCCC2)c(C)c1` [Example 431, (2S)-cyclohexyl({[5-{4-[(trifluoromethyl)oxy]phenyl}-2-({[(2,4,6-trimethylphenyl)amino]carbonyl}amino)-3-thienyl]carbonyl}amino)ethanoic acid], under setting [1], the IC50 was 330 nM.
Under setting [1], `Cc1cccc(Cl)c1NC(=O)Nc1cc2ccccc2cc1C(=O)NCC(=O)O` [Example 85, N-[3-({[(2-chloro-6-methylphenyl)amino]carbonyl}amino)-2-naphthoyl]glycine] came in with an IC50 of 570 nM.
Under setting [1], `Cc1cccc(Cl)c1NC(=O)Nc1cc2ccccc2cc1C(=O)N[C@@H](Cc1ccc(Br)cc1)C(=O)O` [Example 91, 4-bromo-N-[3-({[(2-chloro-6-methylphenyl)amino]carbonyl}amino)-2-naphthoyl]-L-phenylalanine] showed a half-maximal inhibitory concentration (IC50) of 7880 nM.
Under setting [2], `CCCC(=O)N1CCC(NC(=O)c2cc3ccccc3cc2NC(=O)Nc2c(C)cc(C)cc2C)(C(=O)O)CC1` [Example 290, 1-Butanoyl-4-({[3-({[(2,4,6-trimethylphenyl)amino]carbonyl}amino)-2-naphthalenyl]carbonyl}amino)-4-piperidinecarboxylic acid] showed an IC50 of 1240 nM.
Regarding `CC[C@H](C)[C@H](NC(=O)c1cc2ccccc2cc1NC(=O)Nc1c(C)cccc1Cl)C(=O)O` [Example 38, N-[3-({[(2-chloro-6-methylphenyl)amino]carbonyl}amino)-2-naphthoyl]-L-isoleucine], under setting [1], the IC50 stood at 280 nM.
Regarding `COc1cc(NC(=O)Nc2c(C)cccc2C)c(C(=O)N[C@H](C(=O)O)C2CCCCC2)cc1OC` [Example 117, (2S)-cyclohexyl{[2-({[(2,6-dimethylphenyl)amino]carbonyl}amino)-4,5-dimethoxybenzoyl]amino}acetic acid], the midpoint of inhibition under setting [1], the IC50, lay at 14700 nM.
Still for that read-out and setting: next, `Cc1cccc(C)c1NC(=O)Nc1cc2ccccc2cc1C(=O)N[C@@H](CCCNC(=N)N)C(=O)O` [Example 52, N-[3-({[(2,6-dimethylphenyl)amino]carbonyl}amino)-2-naphthoyl]-L-arginine]: 4640 nM.
Under setting [2], `Cc1cc(C)c(NC(=O)Nc2cc3ccccc3cc2C(=O)N[C@@H](CC(=O)OC(C)(C)C)C(=O)OC(C)(C)C)c(C)c1` [Example 353, bis(1,1-dimethylethyl) N-{[3-({[(2,4,6-trimethylphenyl)amino]carbonyl}amino)-2-naphthalenyl]carbonyl}-L-aspartate] registered an IC50 of 5080 nM.
As to `CC[C@H](C)[C@H](NC(=O)c1cc2ccccc2cc1NC(=O)Nc1ccccc1Cl)C(=O)O` [Example 30, N-[3-({[(2-chlorophenyl)amino]carbonyl}amino)-2-naphthoyl]-L-isoleucine], the IC50 under setting [1] stood at 22100 nM.
Same read-out and setting: the result for `CCCCCc1cc(C)c(NC(=O)Nc2cc(F)ccc2C(=O)N[C@H](C(=O)O)C2CCCCC2)c(C)c1` [Example 478, (2S)-cyclohexyl({[2-({[(2,6-dimethyl-4-pentylphenyl)amino]carbonyl}amino)-4-fluorophenyl]carbonyl}amino)ethanoic acid] reads 3 nM; that for `Cc1ccccc1NC(=O)Nc1cc2ccccc2cc1C(=O)N[C@@H](Cc1c[nH]c2ccccc12)C(=O)O` [Example 46, N-[3-({[(2-methylphenyl)amino]carbonyl}amino)-2-naphthoyl]-L-tryptophan], 3730 nM.
In turn, `O=C(Nc1cc(-c2ccccc2)ccc1C(=O)N[C@H](C(=O)O)C1CCCCC1)Nc1c(Cl)cc(Cl)cc1Cl` [Example 200, (2S)-Cyclohexyl({[3-({[(2,4,6-trichlorophenyl)amino]carbonyl}amino)-4-biphenylyl]carbonyl}amino)ethanoic acid] returned an IC50 under setting [2] of 130 nM.
Consider `O=C(Cc1c(Cl)cc(C(F)(F)F)cc1Cl)Nc1cc2ccccc2cc1C(=O)N[C@H](C(=O)O)C1CCCCC1` [Example 161, (2S)-cyclohexyl{[3-({[2,6-dichloro-4-(trifluoromethyl)phenyl]acetyl}amino)-2-naphthoyl]amino}ethanoic acid], for which, under setting [1], half-maximal inhibition (IC50) required 110 nM.
Molecule `Cc1cccc(Cl)c1NC(=O)Nc1ccccc1C(=O)N[C@@H](CC(=O)O)C(=O)O` [Example 87, N-[2-({[(2-chloro-6-methylphenyl)amino]carbonyl}amino)benzoyl]-L-aspartic acid] yielded an IC50 under setting [1] of 24500 nM.
Still for that read-out and setting: next, `Cc1cccc(Cl)c1NC(=O)Nc1cc2ccccc2cc1C(=O)N[C@@H](Cc1cccs1)C(=O)O` [Example 102, N-{[3-({[(2-chloro-6-methylphenyl)amino]carbonyl}amino)-2-naphthalenyl]carbonyl}-3-(2-thienyl)-L-alanine]: 360 nM.
`Cc1cc(C)c(NC(=O)Nc2cc3ccccc3cc2C(=O)N2CCC[C@@H]2C(=O)O)c(C)c1` [Example 357, 1-{[3-({[(2,4,6-trimethylphenyl)amino]carbonyl}amino)-2-naphthalenyl]carbonyl}-D-proline] gave a half-inhibitory concentration (IC50) under setting [2] of 2470 nM.
As to `Cc1cccc(C)c1NC(=O)Nc1cc2ccccc2cc1C(=O)N[C@@H](CC(N)=O)C(=O)O` [Example 25, N-[3-({[(2,6-dimethylphenyl)amino]carbonyl}amino)-2-naphthoyl]-L-asparagine], it took 670 nM to reach half-maximal inhibition under setting [1] (IC50).
Take `Cc1cc(C)c(NC(=O)Nc2cc3ccccc3cc2C(=O)N[C@@H](COC2CCOCC2)C(=O)O)c(C)c1` [Example 276, O-(tetrahydro-2H-pyran-4-yl)-N-{[3-({[(2,4,6-trimethylphenyl)amino]carbonyl}amino)-2-naphthalenyl]carbonyl}-L-serine]: half-maximal inhibition under setting [2] (IC50) was put at 45 nM.
In turn, `CCCCN1CCC(NC(=O)c2cc3ccccc3cc2NC(=O)Nc2c(C)cc(C)cc2C)(C(=O)O)CC1` [Example 289, 1-Butyl-4-({[3-({[(2,4,6-trimethylphenyl)amino]carbonyl}amino)-2-naphthalenyl]carbonyl}amino)-4-piperidinecarboxylic acid] gave an IC50 under setting [2] of 4390 nM.
As for `Cc1cc(C)c(NC(=O)Nc2cc(-c3cccc(F)c3)ccc2C(=O)N[C@@H](CC(=O)O)C(=O)O)c(C)c1` [Example 507, N-{[3′-fluoro-3-({[(2,4,6-trimethylphenyl)amino]carbonyl}amino)-4-biphenylyl]carbonyl}-L-aspartic acid], half-maximal inhibition under setting [1] (IC50) was put at 53 nM.

As a reminder, the IC50 is the concentration that gives 50% inhibition. Higher therefore signals a need for much substance.
